In the supplement of paper PMC10307832:

Legend:
Assay in all cases: relative viability (nuclei count vs DMSO), 5 days (fraction); higher = more cells survive
R406 + Foretinib = compound: COc1cc(Nc2ncc(F)c(Nc3ccc4c(n3)NC(=O)C(C)(C)O4)n2)cc(OC)c1OC [R406] + COc1cc2c(Oc3ccc(NC(=O)C4(C(=O)Nc5ccc(F)cc5)CC4)cc3F)ccnc2cc1OCCCN1CCOCC1 [Foretinib] (partner 0.25 µM)
Procedure, shortened: (§1)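 A single step with final 0.05% Triton X-100, 1% formaldehyde and 1 ug/ml Hoechst fixed the cells and stained nuclei 5 days after treatment. Lung cancer cell lines in 1536-well plates had been treated by pin tool the day after seeding with one drug alone or a fixed anchor-drug dose plus five library-drug doses (not always all listed) in √10 steps, and nuclei were counted on 4× images. Relative viability is the ratio of nuclei in treated wells to nuclei in vehicle wells, taken as the median of duplicate plates.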

R406 + Pictilisib = compound: COc1cc(Nc2ncc(F)c(Nc3ccc4c(n3)NC(=O)C(C)(C)O4)n2)cc(OC)c1OC [R406] + CS(=O)(=O)N1CCN(Cc2cc3nc(-c4cccc5[nH]ncc45)nc(N4CCOCC4)c3s2)CC1 [Pictilisib] (partner 1 µM)
Procedure, shortened: as §1

Daporinad + Tozasertib = compound: O=C(/C=C/c1cccnc1)NCCCCC1CCN(C(=O)c2ccccc2)CC1 [Daporinad] + Cc1cc(Nc2cc(N3CCN(C)CC3)nc(Sc3ccc(NC(=O)C4CC4)cc3)n2)n[nH]1 [Tozasertib] (partner 0.1 µM)
Procedure, shortened: as §1

Daporinad + Olaparib = compound: O=C(/C=C/c1cccnc1)NCCCCC1CCN(C(=O)c2ccccc2)CC1 [Daporinad] + O=C(c1cc(Cc2n[nH]c(=O)c3ccccc23)ccc1F)N1CCN(C(=O)C2CC2)CC1 [Olaparib] (partner 8 µM)
Procedure, shortened: as §1

Row | Cell Line | relative viability (R406 + Foretinib; first compound 0.08 µM) | relative viability (R406 + Foretinib; first compound 0.253 µM) | relative viability (R406 + Foretinib; first compound 0.8 µM) | relative viability (R406 + Foretinib; first compound 2.53 µM) | relative viability (R406 + Foretinib; first compound 8 µM) | relative viability (R406 + Pictilisib; first compound 0.08 µM) | relative viability (R406 + Pictilisib; first compound 0.253 µM) | relative viability (R406 + Pictilisib; first compound 0.8 µM) | relative viability (R406 + Pictilisib; first compound 2.53 µM) | relative viability (R406 + Pictilisib; first compound 8 µM) | relative viability (Daporinad + Tozasertib; first compound 0.0005 µM) | relative viability (Daporinad + Tozasertib; first compound 0.001581 µM) | relative viability (Daporinad + Tozasertib; first compound 0.005 µM) | relative viability (Daporinad + Tozasertib; first compound 0.01581 µM) | relative viability (Daporinad + Olaparib; first compound 0.0005 µM) | relative viability (Daporinad + Olaparib; first compound 0.001581 µM) | relative viability (Daporinad + Olaparib; first compound 0.005 µM) | relative viability (Daporinad + Olaparib; first compound 0.01581 µM)
1 | 201T | 1.13 | 1.32 | 1.21 | 0.829 | 0.708 | 0.677 | 0.725 | 0.669 | 0.591 | 0.57 | 0.854 | 0.94 | 1 | 0.958 | 0.802 | 0.856 | 0.807 | 0.806
2 | A549 | 0.961 | 1 | 0.94 | 0.959 | 0.396 | 0.519 | 0.694 | 0.6 | 0.265 | 0.0797 | – | – | – | – | 0.324 | 0.184 | 0.128 | 0.0773
3 | A-427 | 1.09 | 1.35 | 1.24 | 0.983 | 0.814 | 0.72 | 0.846 | 0.69 | 0.548 | 0.546 | 0.207 | 0.22 | 0.198 | 0.153 | 0.665 | 0.713 | 0.622 | 0.571
4 | ABC-1 | 1.08 | 1.03 | 1.03 | 1.15 | 0.781 | 1 | 0.817 | 0.72 | 0.393 | 0.45 | 0.186 | 0.185 | 0.179 | 0.209 | 1 | 0.82 | 0.781 | 0.582
5 | BEN | 0.884 | 0.609 | 0.691 | 0.879 | 0.578 | 0.581 | 0.642 | 0.57 | 0.623 | 0.447 | 0.552 | 0.547 | 0.422 | 0.546 | 0.827 | 1.02 | 1.02 | 0.914
6 | CAL-12T | 1.03 | 1.23 | 1.22 | 1.09 | 0.812 | 0.296 | 0.575 | 0.457 | 0.193 | 0.185 | 0.324 | 0.325 | 0.158 | 0.124 | 0.624 | 0.596 | 0.512 | 0.269
7 | COR-L23 | 0.925 | 1.18 | 1.12 | 0.931 | 0.665 | 0.755 | 0.926 | 1.14 | 0.681 | 0.233 | 0.199 | 0.232 | 0.179 | 0.106 | 0.156 | 0.245 | 0.19 | 0.155
8 | COR-L 105 | 0.898 | 1.4 | 1.34 | 1.1 | 0.504 | 0.453 | 0.401 | 0.38 | 0.366 | 0.303 | 0.38 | 0.282 | 0.357 | 0.341 | 0.637 | 0.66 | 0.61 | 0.591
9 | Calu-6 | 0.842 | 0.927 | 0.924 | 0.687 | 0.553 | 0.861 | 0.957 | 1.01 | 0.585 | 0.369 | – | – | – | – | 0.495 | 0.433 | 0.391 | 0.268
10 | ChaGo-K-1 | 0.926 | 1.07 | 1.09 | 0.771 | 0.531 | 0.719 | 0.917 | 0.791 | 0.584 | 0.391 | 0.261 | 0.225 | 0.216 | 0.192 | 0.34 | 0.248 | 0.258 | 0.196
11 | EBC-1 | 0.102 | 0.107 | 0.0997 | 0.118 | 0.122 | 0.462 | 0.371 | 0.528 | 0.26 | 0.162 | – | – | – | – | 0.597 | 0.667 | 0.602 | 0.49
12 | EKVX | 0.79 | 1 | 0.821 | 0.567 | 0.609 | 0.436 | 0.41 | 0.422 | 0.357 | 0.347 | 0.392 | 0.457 | 0.301 | 0.396 | 0.861 | 0.912 | 0.788 | 0.615
13 | EMC-BAC-2 | 0.98 | 1.05 | 1.11 | 0.385 | 0.579 | 0.566 | 0.58 | 0.585 | 0.502 | 0.323 | 0.321 | 0.311 | 0.224 | 0.204 | 0.387 | 0.342 | 0.316 | 0.235
14 | EPLC-272H | 0.425 | 0.617 | 0.792 | 0.304 | 0.126 | 0.293 | 0.326 | 0.328 | 0.156 | 0.119 | 0.256 | 0.292 | 0.493 | 0.4 | 0.72 | 0.704 | 0.581 | 0.442
15 | H3255 | 0.868 | – | 0.872 | 0.878 | 0.673 | 0.48 | 0.533 | 0.495 | 0.347 | 0.331 | 0.455 | 0.605 | 0.638 | 0.716 | 0.534 | 0.58 | 0.526 | 0.594
16 | HARA | 0.867 | 1.04 | 1.05 | 0.751 | 0.218 | 0.416 | 0.349 | 0.405 | 0.248 | 0.187 | 0.117 | 0.105 | 0.109 | 0.0561 | 0.726 | 0.425 | 0.466 | 0.28
17 | HCC-15 | 1.07 | 1.12 | 1.19 | 1.01 | 0.643 | 0.702 | 0.896 | 0.827 | – | 0.693 | 0.476 | 0.366 | 0.749 | 0.484 | 0.67 | 0.642 | 0.467 | 0.35
18 | HCC-44 | – | – | – | – | – | 0.569 | 0.647 | 0.611 | 0.526 | 0.335 | 0.881 | 1.03 | 1.16 | 1.05 | 0.962 | 1.06 | 1.04 | 0.985
19 | HCC-78 | 0.562 | 0.602 | 0.642 | 0.57 | 0.56 | 0.233 | 0.219 | 0.259 | 0.173 | 0.185 | 0.417 | – | 0.357 | 0.637 | 0.531 | 0.786 | 0.649 | 0.559
